From patent publication US6673843B2 (Emory University, priority 1999, dated 2004)
Entries after “also recorded” stand apart in the source; their conditions may differ.

Assays:
[1] = system: bFGF-induced corneal neovascularization; experiment: Corneal neovascularization, bFGF pellet in mouse cornea; type: in vivo, C57BL6 male mice; conditions: for ANTI-ANGIOGENIC EFFECT Vessel Length / ANTI-ANGIOGENIC EFFECT Sector Size: pellet with 80 ng bFGF and 44 μg compound, mouse cornea; for ANTI-ANGIOGENIC EFFECT Sector Size: footnote: units of 1/12 of a circle (clock hours)
Protocol: C57BL6 male mice (5-6 weeks old) were anesthetized with methoxyflurane prior to implantation of pellets and with 0.5% proparacaine. A central, intrastromal linear keratotomy was performed with a surgical blade, and a lamellar micropocket was prepared according to the method of Kenyon, et al. (1996). The pellet was advanced to the end of the pocket. Erythromycin ointment was placed on the operated eye to prevent infection. Eyes were examined by slit lamp on days 3-6 after implantation under general anesthesia. Corneal angiogenesis was assayed through two measurements.
Vessel length is the length of the vessel from the corneal limbus as it grows toward the pellet containing bFGF.
Sector size is a measurement of neovascularized area of the cornea. The cornea is viewed as a circle that can be divided into twelve sectors of 30 degrees span each, analogous to the division of a clock face into twelve hours. Thus, neovascularization of a sector corresponding to one fourth of the cornea would be recorded as a sector size measurement of three. This system of measurement, recording sector sizes as “clock hours”, was established by Kenyon et al., Invest. Ophthalmol. 37:1625-1632 (1996).
Pellets were prepared according to a modification of the method of Kenyon, et al. Invest. Opthalmol. Vis. Sci. 37:1625-1632 (1996). […] Once the mixture was dry, the mesh was manually dissociated to yield 225 pellets. […] The approximate pore size was 0.4×0.4 mm. Both sides of the mesh were covered with a thin layer of hydron.
Neovascularization was assessed by slit lamp at 5 days after implantation, and the corneas were photographed.

[2] = system: quinone reductase [NAD(P)H:(quinone-acceptor) oxidoreductase, EC1.6.99.2] in murine Hepac1c7 cells; experiment: Phase II enzyme induction (quinone reductase); type: cell-based; conditions: for PHASE II INDUCTION CD (concentration to double the measured specific activity): quinone reductase, murine Hepac1c7 cells
Excerpt: Several plant-derived compounds with anticancer and chemopreventive activities also show the ability to induce phase II detoxifying enzymes, including quinone reductase.

[3] = system: Bovine capillary endothelial cells; experiment: Endothelial proliferation assay, primary endothelial cells; type: cell-based; conditions: 72 hours
Protocol: Bovine capillary endothelial cells were isolated according to the method of Folkman, et al., Proc. Nat. Acad. Sci. U.S.A. 76:5217-5221 (1979), and were plated at a concentration of 10,000 cells/well in gelatinized 24-well dishes. The primary endothelial cells were cultured in Dulbecco's modified Eagle's medium (DMEM) supplemented with 10% bovine serum and grown at 37° C. in 10% CO2. Twenty-four hours after plating, cells were treated with curcumin in the presence or absence of bFGF. After 72 hours of treatment, cells were counted using a Coulter counter. Cell counts for each condition were repeated in triplicate and in the presence or absence of 1 ng/ml bFGF. Endothelial cells were stimulated to proliferate in the presence of 1 ng/ml bFGF.

[4] = system: MSI (ATCC CCRL 2279) endothelial cells; experiment: Endothelial proliferation assay, SV40 large T antigen immortalized endothelial cells; type: cell-based, murine; conditions: 72-hour exposure
Protocol: Similarly, MSI (ATCC CCRL 2279) endothelial cells, which are a SV40 large T antigen immortalized murine endothelial cell line, were also plated at a concentration of 10,000 cells/well in nongelatinized 24-well dishes.

[5] = system: VEGF mRNA; experiment: Production of VEGF mRNA in HaCaT keratinocytes (RNAse protection); type: cell-based, human; conditions: TPA 5 ng/ml, three hours, HaCaT cells
Protocol: HaCaT keratinocytes were grown in (DMEM) (JRH) supplemented with 5% FCS (Hyclone, Logan, UT) in 25 cm^2 flasks. […] TPA was added to a final concentration of 5 ng/ml and cells were incubated for three hours at 37° C. and harvested, and their RNA was extracted with guanidinium thiocyanate/phenol.
A plasmid containing the coding region of human vascular endothelial growth factor (VEGF) 121 was obtained from H. Welch (University of Freiburg, Germany), and used to generate P^32-labeled antisense riboprobe as per manufacturers protocols (Ambion, Austin, Tex.). RNAse protection assays were performed according to the method of Hod, Biotechniques 13:852-853 (1992). Protected fragments were separated on gels of 5% acrylamide, 8 M urea, 1× Tris-borate buffer, and quantified with a phosphorimager (Molecular Dynamics, Sunnyvale, Calif.). An 18S riboprobe was included in each sample to normalize for variations in loading and recovery of RNA.
HaCaT cells are derived from spontaneously transformed human keratinocytes.

[6] = system: omithine decarboxylase induction and promotion of mouse skin; conditions: oral administration; Huang et al. 1995; cited from earlier work
[7] = system: human umbilical vein endothelial cells (HUVEC); conditions: independent of bFGF stimulation; Singh et al. 1996; cited from earlier work
[8] = system: induced tumors; conditions: oral administration, skin and colon chemical carcinogens; cited from earlier work
[9] = pellet with 80 ng bFGF plus compound

Row | Structure (SMILES) | ANTI-ANGIOGENIC EFFECT Vessel Length [1] [mm.] | ANTI-ANGIOGENIC EFFECT Sector Size [1] [clock hours] | PHASE II INDUCTION CD (concentration to double the measured specific activity) [2] [µM] | other results
1 | COc1cc(CCC(=O)CC(=O)CCc2ccc(O)c(OC)c2)ccc1O [Tetrahydrocurcumin, tetrahydrocurcumin] | 0.74 | 2.43 | >25 | induction of quinone reductase activity ([2]; highest concentration tested, 25 μM): 1.6 fold
2 | COc1cc(/C=C/C(=O)CC(=O)/C=C/c2ccc(O)c(OC)c2)ccc1O [Curcumin] | 0.59 | 1.17 | 7.3 | cell number (proliferation) after treatment ([3]; 10 μM, presence or absence of 1 ng/ml bFGF): steep decrease in cell number; cytotoxicity to endothelial cells ([3]; 0.5 to 10 μM): No evidence of cytotoxicity; growth of endothelial cells immortalized by SV40 large T antigen [4]: able to inhibit the growth; sector size (in words) [1, 9]: significantly reduced; vessel length (in words) [1, 9]: significantly reduced; inhibition of TPA-caused increase in VEGF mRNA ([5]; 10 μM curcumin): not inhibited; also recorded: lack of inhibition; inhibition of phorbol ester-stimulated ornithine decarboxylase induction and promotion of DMBA-initiated mouse skin [6]: able to inhibit; in vitro proliferation of HUVEC [7]: inhibits; incidence and size of induced tumors compared with control mice [8]: decreased incidence and size
3 | O=C1C(c2ccccc2)=C(c2ccccc2)C(c2ccccc2)=C1c1ccccc1 [TPCPD, tetraphenylcyclopentadienone, reference compound] | 1.16 | 3.72 | 4.8 | bFGF-induced corneal neovascularization (in words) [1, 9]: no anti-angiogenic activity; also recorded: no difference in neovascularization; bFGF-induced corneal neovascularization (in words) ([1]; pellet with 80 ng bFGF plus compound, listed as tetraphenylcyclopentadienone (TPCPD)): no effect
4 | CCCCCCCCCCCCCC(=O)O[C@@H]1[C@@H](C)[C@@]2(O)[C@@H](C=C(CO)C[C@]3(O)C(=O)C(C)=C[C@@H]23)[C@@H]2C(C)(C)[C@]12OC(C)=O [TPA, 12-O-tetradecanoylphorbol-13-acetate, reference compound] |  |  |  | increase in VEGF mRNA [5]: 2.5 fold
5 | O=C(/C=C/c1ccc(O)cc1)CC(=O)/C=C/c1ccc(O)cc1 [Bisdemethoxycurcumin, bisdemethoxycurcumin] | 0.88 | 1.7 | 11.0 | 
6 | COc1cc(/C=C/C(O)=C/C(=O)/C=C/c2ccc(O)cc2)ccc1O [Demethoxycurcumin, demethoxycurcumin] | 0.26 | 0.71 | 9.0 | 
